Each structure is given as a SMILES string. ≈ marks a conversion by molar mass, not a printed value.

Experiment [1] concerns Salmonella typhimurium. The experiment in a line: Compound was tested for the mutagenicity activity in the Salmonella Typhimurium reverse mutation assay (+) - low levels of mutagenicity. The format is functional, organism-based. The following applies: Salmonella enterica subsp. enterica serovar Typhimurium.
A short description of experiment [2]: Minimum inhibitory concentration (MIC) of compound expressed as geometric mean of various bacterias. The format is functional.
Experiment [3] is described as follows: Minimum inhibitory concentration (MIC) of compound expressed as geometric mean of various bacterias.*. The format is functional.
Experiment [4] deals with Salmonella typhimurium. The experiment in a line: Compound was tested for the mutagenicity activity in the Salmonella Typhimurium reverse mutation assay; +-indicates the levels of mutagenicity as the number of revertant colonies obtained increases 1.5-2 times. The format is functional, organism-based. The settings on record: Salmonella enterica subsp. enterica serovar Typhimurium.

Experiment [5] has as its system Salmonella typhimurium. Briefly: Compound was tested for the mutagenicity activity in the Salmonella Typhimurium reverse mutation assay; (+) - low levels of mutagenicity. In kind it is functional, organism-based. The following applies: Salmonella enterica subsp. enterica serovar Typhimurium.
Experiment [6] concerns Salmonella typhimurium. Briefly: Compound was tested for the mutagenicity activity in the Salmonella Typhimurium reverse mutation assay;(+) - low levels of mutagenicity. In kind it is functional, organism-based. The settings on record: Salmonella enterica subsp. enterica serovar Typhimurium.
The test system of experiment [7] is Salmonella typhimurium. The experiment in a line: Compound was tested for the mutagenicity activity in the Salmonella Typhimurium reverse mutation assay; ++/+++-indicates the levels of mutagenicity as the number of revertant colonies obtained increases 5/10 times. The following applies: Salmonella enterica subsp. enterica serovar Typhimurium. In kind it is functional, organism-based.

In the case of `Cn1c([N+](=O)[O-])cnc1C(O)c1cc(C2CCCCC2)ccc1O` (centres undefined), in experiment [1], the Mutagenicity result is “low levels of mutagenicity”. The compound also displayed an MIC in experiment [2] of 8.82 µM (≈ 2.92 µg/mL). Compound `Cn1c([N+](=O)[O-])cnc1C(O)c1cc(C23C[C@H]4C[C@@H](C2)C[C@@H](C3)C4)ccc1O` (some centres undefined) had an MIC in experiment [3] of 2.43 µM (≈ 0.932 µg/mL). For the compound `Cn1c([N+](=O)[O-])cnc1C(O)c1cccc(C23C[C@H]4C[C@@H](C2)C[C@@H](C3)C4)c1O` (some centres undefined), the Mutagenicity entry in experiment [4] is on record as “Levels of mutagencity as the number of revertant colonies obtained increases 1.5-2 times”. The MIC in experiment [3] turned out to be 4.46 µM (≈ 1.71 µg/mL). In the case of `COc1cc(C(O)c2ncc([N+](=O)[O-])n2C)c(O)c(C2C3C[C@H]4C[C@@H](C3)C[C@@H]2C4)c1` (some centres undefined), the Mutagenicity entry in experiment [5] was “low levels of mutagenicity”. For the same compound, the MIC in experiment [3] came out at 4.21 µM (≈ 1.74 µg/mL).

`COc1cc(C(O)c2ncc([N+](=O)[O-])n2C)c(O)c(C(C)(C)C)c1` (centres undefined) came in with an MIC in experiment [3] of 28.2 µM (≈ 9.46 µg/mL). For `Cn1c([N+](=O)[O-])cnc1C(O)c1cc(Cl)cc(C2C3C[C@H]4C[C@@H](C3)C[C@@H]2C4)c1O` (some centres undefined), the Mutagenicity result in experiment [6] was “low levels of mutagenicity”. The compound also displayed an MIC in experiment [3] of 6.78 µM (≈ 2.83 µg/mL).

For `Cn1c([N+](=O)[O-])cnc1C(O)c1cc(F)cc(C2C3C[C@H]4C[C@@H](C3)C[C@@H]2C4)c1O` (some centres undefined), the Mutagenicity entry in experiment [6] is recorded as “low levels of mutagenicity”. Also, the MIC in experiment [3] worked out at 3.97 µM (≈ 1.59 µg/mL). As to `Cn1c([N+](=O)[O-])cnc1C(O)c1cc(C2C3C[C@H]4C[C@@H](C3)C[C@@H]2C4)ccc1O` (some centres undefined), the MIC in experiment [3] amounted to 1.8 µM (≈ 0.69 µg/mL). On the same count and under the same terms, the result for `Cc1ncc([N+](=O)[O-])n1CCO` [METRONIDAZOLE] reads 1.46 µM (≈ 0.25 µg/mL).

Consider `Cn1c([N+](=O)[O-])cnc1C(O)c1cc(C(C)(C)C)ccc1O` (centres undefined) [ABUNIDAZOLE], for which, in experiment [7], the Mutagenicity result was “++/+”. In experiment [3], this compound had an MIC of 13.1 µM (≈ 4 µg/mL). Take `Cn1c([N+](=O)[O-])cnc1C(O)c1cccc(C2C3C[C@H]4C[C@@H](C3)C[C@@H]2C4)c1O` (some centres undefined): the MIC in experiment [3] came to 3.84 µM (≈ 1.47 µg/mL). Take `Cn1c([N+](=O)[O-])cnc1C(O)c1cccc(C2CCCCC2)c1O` (centres undefined): the Mutagenicity result in experiment [4] is reported as “Levels of mutagencity as the number of revertant colonies obtained increases 1.5-2 times”. For the same compound, in experiment [3], the MIC turned out to be 4.68 µM (≈ 1.55 µg/mL).

(Values after ChEMBL document CHEMBL1129130, “Preparation, antimicrobial evaluation and mutagenicity of differently substituted [2-hydroxyaryl]-[1-methyl-5-nitro-1H-2-imidazolyl]methanols” (1996).)
